Structures are written as SMILES.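 Test compounds were applied to cells in 96-well plates for 48 hours at 5 doses. The concentration for 50% growth inhibition is given as GI50.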 The source made the active and inactive calls. Cut-off read from the data, not from the text of the source: active = GI50 up to about 1.1 µM and inactive = higher.

What all share (assay): NCI tumour cell line growth inhibition, 48 h
The test system of experiment [1] is A549.
Experiment [2] concerns COLO 205.
For experiment [3], the system named is HCC 2998.
The test system of experiment [4] is HL-60.
In experiment [5] the test system is HOP-62.
Experiment [6] has as its system HT-29.
For experiment [7], the system named is K562.
For experiment [8], the system named is KM12.
The test system of experiment [9] is MDA-MB-435.
In experiment [10] the test system is Malme-3M.
In experiment [11] the test system is NCI-H23.
Experiment [12] concerns NCI/ADR-RES.
Experiment [13] has as its system OVCAR-3.
In experiment [14] the test system is RXF 393.
For experiment [15], the system named is SF-268.
In experiment [16] the test system is SF-539.
Experiment [17] deals with SK-OV-3.
Experiment [18] concerns SN12C.
Experiment [19] relates to SW-620.
Experiment [20] has as its system TK-10.

Consider `Cc1ccc(C=C(C(=O)O)C(=O)O)o1`, for which the GI50 in experiment [1], in experiment [2], in experiment [3], in experiment [4], in [5] and in experiment [6] was > 100 µM (inactive) in each case. Further, the GI50 in [7], in [8], in experiment [9], in experiment [10], in experiment [11] and in experiment [12] was > 100 µM (inactive) in each case. Also, the GI50 in [13], in experiment [14], in experiment [15], in experiment [16], in experiment [17] and in [18] was > 100 µM (inactive) throughout. The GI50 in [19] and in experiment [20] was > 100 µM (inactive) throughout.
As to `C=C1C(=O)O[C@@H]2/C=C(\C)CC/C=C(\C)CC[C@@]12O`, the GI50 in experiment [1] is 11.6 µM (inactive); in [2], 1.84 µM (inactive); in experiment [3] it was 5.31 µM (inactive); in experiment [4], 0.771 µM (active); in experiment [5], 5.07 µM (inactive); in experiment [6] it was 2.99 µM (inactive). Besides, the GI50 is 2.42 µM (inactive) in experiment [7]; 8.95 µM (inactive) in experiment [8]; 2.62 µM (inactive) in [9]; 1.53 µM (inactive) in experiment [10]; 1.67 µM (inactive) in experiment [11]; 10.6 µM (inactive) in experiment [12]. Further, the GI50 was 2.4 µM (inactive) in [13]; 0.185 µM (active) in experiment [14]; 5.37 µM (inactive) in experiment [15]; 1.2 µM (inactive) in [16]; 15.6 µM (inactive) in [17]; 2.44 µM (inactive) in experiment [18]. Besides, the GI50 is 1.04 µM (active) in experiment [19] and 1.73 µM (inactive) in [20].
For `C[N+](C)(CCO)CCN1c2ccccc2Sc2ccccc21`, the GI50 in [1], in [2], in experiment [3], in experiment [4], in experiment [5] and in [6] was > 10 µM (inactive) throughout. Moreover, the GI50 in experiment [7], in [8], in [9], in [10], in experiment [11] and in experiment [12] was > 10 µM (inactive) each time. Besides, the GI50 in experiment [13], in experiment [14], in experiment [15], in experiment [16], in experiment [17] and in experiment [18] was > 10 µM (inactive) each time. For the same molecule, the GI50 in experiment [19] and in [20] was > 10 µM (inactive) in each case.
In the case of `Nc1nc(=O)[nH]cc1F` [FLUCYTOSINE], the GI50 in experiment [1], in [2], in experiment [3], in experiment [4], in experiment [5] and in [6] was > 100 µM (inactive) throughout. In addition, the GI50 in [7], in experiment [8], in experiment [9], in experiment [10], in experiment [11] and in experiment [12] was > 100 µM (inactive) throughout. In addition, the GI50 in [13], in experiment [14], in experiment [15], in experiment [16], in experiment [17] and in experiment [18] was > 100 µM (inactive) each time. Besides, the GI50 in experiment [19] and in experiment [20] was > 100 µM (inactive) each time.
For `CN(C)C(=O)/N=C1\SC(=N\c2ccccc2)/C(=N/c2ccccc2)N1c1ccc([N+](=O)[O-])cc1`, the GI50 in experiment [2] was > 100 µM (inactive); in [3], > 100 µM (inactive); in [4], > 100 µM (inactive); in experiment [5], 61.9 µM (inactive); in [6], 52.4 µM (inactive); in experiment [7] it was > 100 µM (inactive). Moreover, the GI50 in experiment [8] was > 100 µM (inactive); in [9], > 100 µM (inactive); in experiment [10], > 100 µM (inactive); in experiment [11], > 100 µM (inactive); in [12], > 100 µM (inactive); in experiment [13], 71 µM (inactive). Besides, the GI50 in experiment [14], in [17] and in [18] was > 100 µM (inactive) throughout.
Take `CSC1=C(SC)C(=O)c2cn(C)c(=O)cc2C1=O`: the GI50 is 16.1 µM (inactive) in experiment [1]; 1.49 µM (inactive) in experiment [2]; 17.1 µM (inactive) in experiment [3]; 0.0731 µM (active) in experiment [4]; 9.38 µM (inactive) in experiment [5]; 6.14 µM (inactive) in experiment [6]. Moreover, the GI50 in experiment [7] was 0.399 µM (active); in experiment [8], 21.6 µM (inactive); in experiment [9], 1.79 µM (inactive); in [10], 2.24 µM (inactive); in experiment [11], 4.57 µM (inactive); in [12] it was > 19.7 µM (inactive). Further, the GI50 is 1.91 µM (inactive) in [13]; 1.89 µM (inactive) in experiment [14]; 11.8 µM (inactive) in [15]; 9.82 µM (inactive) in experiment [16]; 17.5 µM (inactive) in [17]; 3.27 µM (inactive) in experiment [18]. The results for the GI50 in [19] and in [20] were 1.74 µM (inactive) and 2.33 µM (inactive), respectively.
